Test results reported in US20180009797A1, “AZA-ARYL 1H-PYRAZOL-1-YL BENZENE SULFONAMIDES” (ChemoCentryx, Inc., priority 2016, published 2018).

biological target: T1, CCR(9) (Homo sapiens, UniProt P51686); assay: calcium mobilization assay (FLIPR, MOLT-4 cells, hTECK); type: cell-based; settings: read-out: CCR(9) Ca^2+
T1 construct: CCR(9)-expressing cells such as T cell line MOLT-4 cells; host or cells: MOLT-4 T cell line
T1 sequence (P51686 1-369): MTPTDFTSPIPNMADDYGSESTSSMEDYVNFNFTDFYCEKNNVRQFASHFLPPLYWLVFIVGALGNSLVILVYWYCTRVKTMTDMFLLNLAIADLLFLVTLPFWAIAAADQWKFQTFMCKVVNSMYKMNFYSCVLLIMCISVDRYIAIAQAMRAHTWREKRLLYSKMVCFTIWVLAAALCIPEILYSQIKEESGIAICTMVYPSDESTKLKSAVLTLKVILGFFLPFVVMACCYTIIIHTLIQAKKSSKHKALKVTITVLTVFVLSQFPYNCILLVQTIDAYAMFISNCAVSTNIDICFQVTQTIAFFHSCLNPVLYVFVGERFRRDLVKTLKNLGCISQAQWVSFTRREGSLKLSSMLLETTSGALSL
Protocol: In calcium signaling assays used to determine the ability of a compound to interfere with binding between a chemokine receptor and a known chemokine ligand, chemokine receptor-expressing cells (CCR(9)-expressing cells such as T cell line MOLT-4 cells) are first incubated with a compound of interest, such as a potential chemokine antagonist, at increasing concentrations. The cell number can be from 10^5 to 5×10^6 cells per well in a 96-well microtiter plate. The concentration of the compound being tested may range from 0 to 100 μM. After a period of incubation (which can range from 5 to 60 minutes), the treated cells are placed in a Fluorometric Imaging Plate Reader (FLIPR®) (available from Molecular Devices Corp., Sunnyvale, Calif.) according to the manufacturer's instruction. The FLIPR® system is well known to those skilled in the art as a standard method of performing assays. The cells are then stimulated with an appropriate amount of the chemokine ligand (TECK for CCR(9)) at 5-100 nM final concentration, and the signal of intracellular calcium increase (also called calcium flux) is recorded. The efficacy of a compound as an inhibitor of binding between the chemokine and the ligand can be calculated as an IC50 (the concentration needed to cause 50% inhibition in signaling) or IC90 (at 90% inhibition).
(§1) MOLT-4 cells were obtained from the American Type Culture Collection (Manassas, Va.) and cultured in RPMI tissue culture medium supplemented with 10% fetal calf serum (FCS) in a humidified 5% CO2 incubator at 37° C. Recombinant human chemokine proteins TECK was obtained from R&D Systems (Minneapolis, Minn.). ChemoTX® chemotaxis microchambers were purchased from Neuro Probe (Gaithersburg, Md.). CyQUANT® cell proliferation kits were purchased from Molecular Probes (Eugene, Oreg.). Calcium indicator dye Fluo-4 AM was purchased from Molecular Devices (Mountain View, Calif.).
A cytoplasmic calcium mobilization assay was used to determine the efficacy of potential receptor antagonists at blocking the signals mediated through chemokine receptors, such as CCR(9). This assay was routinely performed using the Fluorescent Imaging Plate Reader (FLIPR, Molecular Devices). MOLT-4 cells were labeled with the fluorescent-indicator dye Fluo-4 (Molecular Devices) according to the manufacturer's directions. After labeling, the cells were collected by centrifugation (400×g for 5 min at room temperature) and resuspended in HBSS to a cell density of 2.5×10^6 cells/mL. Test compounds were prepared in 100% DMSO at 100× the final concentration; generally, a range of concentrations of each compound were tested, with final concentrations from 0.1 nM to 10,000 nM. Labeled cells (300 μL) were mixed with compound or an equal volume of DMSO (3 μL) in a 96-well plate; after thorough mixing, 50 μL of this cell/compound mixture was added to each of four wells of a 384-well FLIPR plate. The chemokine agonist (i.e., hTECK), prepared in HBSS at a 5× concentration of the previously determined EC^50 concentration, was added to each well and resulting changes in the fluorescent intensity, indicative of chemokine receptor-mediated signaling, were recorded on the FLIPR.

SMILES	IC50
Cc1cc(NS(=O)(=O)c2ccc3c(c2)CCC3(C)C)n(-c2cccc3ncccc23)n1	< 0.1 µM
Cc1cc(NS(=O)(=O)c2ccc3c(c2)CC(C)(C)O3)n(-c2cccc3ncccc23)n1	< 0.1 µM
Cc1cc(NS(=O)(=O)c2ccc(C(C)(C)C)cc2)n(-c2ncnc3ccccc23)n1	< 0.1 µM
CCOc1ccc(S(=O)(=O)Nc2cc(C)nn2-c2cccc3ncccc23)cc1	< 0.1 µM
Cc1cc(NS(=O)(=O)c2ccc(C(C)(C)C)cc2)n(-c2cccc3[nH]c(=O)ccc23)n1	< 0.1 µM
Cc1cc(NS(=O)(=O)c2ccc(C3(C#N)CC3)cc2)n(-c2cccc3ncccc23)n1	< 0.1 µM
COc1ccc(S(=O)(=O)Nc2cc(C)nn2-c2cccc3ncccc23)cc1	0.1 to 1 µM
Cc1cc(NS(=O)(=O)c2ccc(C(C)(C)O)cc2)n(-c2cccc3ncccc23)n1	< 0.1 µM
CCc1ccc(S(=O)(=O)Nc2cc(C)nn2-c2cccc3ncccc23)cc1	< 0.1 µM
Cc1cc(NS(=O)(=O)c2ccc(C(C)(C)C)cc2)n(-c2ccc(N(C)C)c3ccccc23)n1	< 0.1 µM
Cc1cc(NS(=O)(=O)c2ccc(C(C)(C)C)cc2)n(-c2c(C)ccc3ncccc23)n1	< 0.1 µM
CC(C)c1cc(NS(=O)(=O)c2ccc(C(C)(C)C)cc2)n(-c2cccc3ncccc23)n1	0.1 to 1 µM
COc1ccc2ncccc2c1-n1nc(C)cc1NS(=O)(=O)c1ccc(C(C)(C)C)cc1	< 0.1 µM
Cc1cc(NS(=O)(=O)c2ccc(OC(C)(C)C)cc2)n(-c2cccc3ncccc23)n1	0.1 to 1 µM
Cc1cc(NS(=O)(=O)c2ccc(N3CCOCC3)cc2)n(-c2cccc3ncccc23)n1	< 0.1 µM
Cc1cc(NS(=O)(=O)c2ccc(C(C)(C)C)cc2)n(-c2cccc3cnncc23)n1	> 1 µM
Cc1cc(NS(=O)(=O)c2ccc(C(C)(C)C)cc2)n(-c2cccc3nccc(C)c23)n1	< 0.1 µM
CC(C)(C)c1ccc(S(=O)(=O)Nc2cc(CO)nn2-c2cccc3ncccc23)cc1	< 0.1 µM
Cc1cc(NS(=O)(=O)c2ccc(N3CCOCC3)c(F)c2)n(-c2cccc3ncccc23)n1	< 0.1 µM
CC(C)(C)c1ccc(S(=O)(=O)Nc2c3c(nn2-c2cccc4cnccc24)CCC3)cc1	< 0.1 µM
CC(C)(C)c1ccc(S(=O)(=O)Nc2cc(C3CC3)nn2-c2cccc3ncccc23)cc1	< 0.1 µM
Cc1cc(NS(=O)(=O)c2ccc(C(C)(C)C)cc2C)n(-c2cccc3ncccc23)n1	0.1 to 1 µM
COc1cc(C(C)(C)C)ccc1S(=O)(=O)Nc1cc(C)nn1-c1cccc2ncccc12	< 0.1 µM
Cc1cc(NS(=O)(=O)c2ccc(C(C)(C)C)cc2)n(-c2ncc(C)c3ccccc23)n1	< 0.1 µM
Cc1cc(NS(=O)(=O)c2ccc(C(C)(C)C)cc2)n(-c2ccc3ccccc3n2)n1	0.1 to 1 µM
Cc1cc(NS(=O)(=O)c2ccc(C(C)(C)C)cc2)n(-c2ccc(Cl)c3nccc(C)c23)n1	< 0.1 µM

biological target: T1, CCR(9); assay: serum chemotaxis (serum migration) assay, MOLT-4 cells in human serum, TECK; type: cell-based; settings: read-out: A2
Protocol: In vitro cell chemotaxis assays can be performed (but are not limited to this format) using the 96-well microchamber (called ChemoTX™). The ChemoTX™ system is well known to those skilled in the art as a type of chemotactic/cell migration instrument. In this assay, CCR(9)-expressing cells (such as MOLT-4) are first incubated with a compound of interest, such as a possible CCR(9) antagonist at increasing concentrations. Typically, fifty thousand cells per well are used, but the amount can range from 10^3-10^6 cells per well. The chemokine ligand (for example, CCR(9) ligand TECK, typically at 50 nM (but can range from 5-100 nM)), is placed at the lower chamber and the migration apparatus is assembled. Twenty microliters of test compound-treated cells are then placed onto the membrane. Migration is allowed to take place at 37° C. for a period of time, typically 2.5 hours for CCR(9). At the end of the incubation, the number of cells that migrated across the membrane into the lower chamber is then quantified. The efficacy of a compound as an inhibitor of chemokine-mediated cell migration can be calculated as an IC50 (the concentration needed to reduce cell migration by 50%) or IC90 (for 90% inhibition).
as §1
A serum chemotaxis assay was used to determine the efficacy of potential receptor antagonists at blocking the migration mediated through chemokine receptors, such as CCR(9). This assay was performed using the ChemoTX® microchamber system with a 5-μm pore-sized polycarbonate membrane. MOLT-4 cells were collected by centrifugation at 400×g at room temperature, then suspended at 50 million/ml in human serum, containing 50 mM HEPES (final pH of 7.2). The compound being tested or an equivalent volume of its solvent (DMSO) was then added to the cell/serum mixture at a final DMSO concentration of 0.125% (v/v), and this mixture was then incubated together at 37° C. for one hour. Separately, recombinant human TECK was diluted with chemotaxis buffer (HBSS+0.1% BSA), generally spanning a range from 0.1 nM to 500 nM, after which 29 μl of diluted chemokine was placed in the lower wells of the ChemoTX® plate. The 5-μm (pore size) polycarbonate membrane was placed onto the plate, and 20 μL of the cell/compound mixture was transferred onto each well of the membrane. The plates were incubated at 37° C. for 90 minutes, after which the polycarbonate membranes were removed and 5 μl of the DNA-intercalating agent CyQUANT (Invitrogen, Carlsbad, Calif.) was added to the lower wells. The amount of fluorescence, corresponding to the number of migrated cells, was measured using a Spectrafluor Plus plate reader (TECAN, San Jose, Calif.).
The A2 values were calculated from the following equation, comparing the efficacy of the test compound with that of the DMSO-only control at equi-active chemokine levels:
Log(A2)=log [drug(M)]−log [(A′/A)−1]
where A reflects the potency of the agonist in the absence of antagonist and […] reflects the potency of the agonist in the presence of antagonist at a given concentration of drug ([drug(M)]).

SMILES	EC50
CC(C)(C)c1ccc(S(=O)(=O)Nc2cc(C(F)(F)F)nn2-c2cccc3ncccc23)cc1	0.501 to 2.5 µM
Cc1cc(NS(=O)(=O)c2ccc(OCC(C)C)cc2)n(-c2cccc3ncccc23)n1	> 2.5 µM
Cc1cc(NS(=O)(=O)c2ccc(OC(C)C)cc2)n(-c2cccc3ncccc23)n1	0.501 to 2.5 µM
Cc1cc(NS(=O)(=O)c2ccc(C(C)(C)C)cc2)n(-c2ccnc3ccccc23)n1	0.501 to 2.5 µM
Cc1cc(NS(=O)(=O)c2ccc(C(C)C)cc2)n(-c2cccc3cnccc23)n1	0.501 to 2.5 µM
Cc1cc(NS(=O)(=O)c2ccc(C(C)(C)C)cc2)n(-c2cncc3ccccc23)n1	0.501 to 2.5 µM
CC(C)c1ccc(S(=O)(=O)Nc2cc(C(F)(F)F)nn2-c2cccc3ncccc23)cc1	0.501 to 2.5 µM
Cc1cc(NS(=O)(=O)c2ccc(C(C)(C)C)cc2)n(-c2nccc3ncccc23)n1	0.501 to 2.5 µM
CC(C)Oc1ccc(S(=O)(=O)Nc2cc(C(F)(F)F)nn2-c2cccc3ncccc23)cc1	> 2.5 µM
Cc1cc(NS(=O)(=O)c2ccc(C(C)(C)C)cc2)n(-c2n[nH]c(=O)c3ccccc23)n1	0.501 to 2.5 µM
Cc1cc(NS(=O)(=O)c2ccc(C(C)(C)C)cc2)n(-c2ccc(C)c3ncccc23)n1	0.501 to 2.5 µM
Cc1cc(NS(=O)(=O)c2ccc(C(C)(C)C)cc2)n(-c2cc(N)nc3ccccc23)n1	0.501 to 2.5 µM
COc1cnc(-n2nc(C)cc2NS(=O)(=O)c2ccc(C(C)(C)C)cc2)c2ccccc12	0.501 to 2.5 µM
Cc1cc(NS(=O)(=O)c2ccc(C(C)(C)C)cc2)n(-c2cnnc3ccccc23)n1	0.501 to 2.5 µM
Cc1cc(NS(=O)(=O)c2ccc(C(C)(C)C)cc2)n(-c2cnc(N)c3ccccc23)n1	0.501 to 2.5 µM
Cc1cc(NS(=O)(=O)c2ccc(C(C)(C)C)cc2)n(-c2ccnc3c(F)cccc23)n1	0.501 to 2.5 µM
Cc1cc(NS(=O)(=O)c2ccc(C(C)(C)C)c(F)c2)n(-c2cccc3ncccc23)n1	< 0.5 µM
Cc1cc(NS(=O)(=O)c2ccc(C(C)(C)C)cc2)n(-c2ncc(Cl)c3ccccc23)n1	> 2.5 µM
CC(C)(C)c1ccc(S(=O)(=O)Nc2cc(C(F)F)nn2-c2cccc3ncccc23)cc1F	0.501 to 2.5 µM
Cc1cc(-n2nc(C)cc2NS(=O)(=O)c2ccc(C(C)(C)C)cc2)c2ccccc2n1	0.501 to 2.5 µM
Cc1cc(NS(=O)(=O)c2ccc(C(C)(C)C)c(F)c2)n(-c2ccc(N)c3ncccc23)n1	0.501 to 2.5 µM
Cc1cc(NS(=O)(=O)c2ccc(C(C)(C)C)cc2)n(-c2ccnc3cc(F)ccc23)n1	0.501 to 2.5 µM
CC(C)(C)c1ccc(S(=O)(=O)Nc2cc(CF)nn2-c2cccc3ncccc23)cc1F	< 0.5 µM
Cc1cc(NS(=O)(=O)c2ccc(C(C)(C)C)c(F)c2)n(-c2cccc3nc(N)ccc23)n1	< 0.5 µM
Cc1cc(NS(=O)(=O)c2ccc(C(C)(C)C)cc2)n(-c2ccc(F)c3ncccc23)n1	0.501 to 2.5 µM
